From ChEMBL document CHEMBL6121044, “Discovery of Novel Spirocyclic MAT2A Inhibitors Demonstrating High In Vivo Efficacy in MTAP-Null Xenograft Models” (J Med Chem, 2025)

Tests used:
[1] = AUCinf in male Sprague-Dawley rat at 10 mg/kg, po measured upto 24 hrs upto 24 hrs by LC-MS/MS analysis; assay type: ADME, organism-based; conditions: in vivo
[2] = target: T1, S-adenosylmethionine synthase isoform type-2 (Homo sapiens, UniProt P31153); test: Inhibition of MAT2A in MTAP-knock out human HCT-116 cells assessed as inhibition of S-adenosylmethionine level; assay type: cell-based
[3] = Clearance in male ICR mouse at 10 mg/kg, po and 2 mg/kg, iv measured upto 24 hrs; assay type: ADME, organism-based; conditions: in vivo
[4] = Half life in beagle dog at 2 mg/kg, iv measured upto 24 hrs upto 24 hrs by LC-MS/MS analysis; assay type: ADME, organism-based, Canis lupus familiaris; conditions: in vivo
[5] = Genotoxicity in Salmonella typhimurium TA1535; assay type: toxicity; conditions: salmonella enterica subsp. enterica serovar typhimurium
[6] = target: T1, S-adenosylmethionine synthase isoform type-2; test: Inhibition of MAT2A in wild type human HCT-116 cells assessed as inhibition of S-adenosylmethionine; assay type: cell-based
[7] = AUCinf in male ICR mouse at 2 mg/kg, iv measured upto 24 hrs by LC-MS/MS analysis; assay type: ADME, organism-based; conditions: in vivo
[8] = Plasma protein binding in rat assessed as unbound fraction; assay type: ADME, cell-free
[9] = Genotoxicity in Salmonella typhimurium TA97a; assay type: toxicity; conditions: salmonella enterica subsp. enterica serovar typhimurium
HCT-116 [10] = test: Antiproliferative activity against MTAP-knock out human HCT-116 cells assessed as maximal inhibition rate at 10 uM measured after 5 days by CTG assay relative to control; assay type: functional; conditions: time 5 day
[11] = Half life in male ICR mouse at 10 mg/kg, po and 2 mg/kg, iv measured upto 24 hrs; assay type: ADME, organism-based; conditions: in vivo
Cytochrome P450 2B6 = target: T2, Cytochrome P450 2B6 (Homo sapiens, UniProt P20813); test: Inhibition of CYP2B6 (unknown origin); assay type: ADME
T2 sequence (P20813 whole entry): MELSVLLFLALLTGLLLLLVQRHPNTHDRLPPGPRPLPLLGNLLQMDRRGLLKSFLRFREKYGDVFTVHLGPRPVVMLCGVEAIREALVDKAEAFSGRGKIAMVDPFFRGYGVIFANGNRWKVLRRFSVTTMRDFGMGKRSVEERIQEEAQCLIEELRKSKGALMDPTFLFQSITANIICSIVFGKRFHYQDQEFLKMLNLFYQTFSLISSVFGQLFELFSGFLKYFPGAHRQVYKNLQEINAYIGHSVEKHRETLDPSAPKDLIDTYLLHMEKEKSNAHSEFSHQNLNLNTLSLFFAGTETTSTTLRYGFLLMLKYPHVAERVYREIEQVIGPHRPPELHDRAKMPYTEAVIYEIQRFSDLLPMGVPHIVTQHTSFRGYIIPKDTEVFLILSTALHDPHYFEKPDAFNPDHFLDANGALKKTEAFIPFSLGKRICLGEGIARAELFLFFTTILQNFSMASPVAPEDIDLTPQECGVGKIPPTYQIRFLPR

[12] = Hepatic metabolic stability in rat hepatocyte assessed as half life; assay type: ADME, cell-based; conditions: hepatocytes
[13] = Protein binding in mouse brain assessed as unbound fraction; assay type: ADME, tissue-based
[14] = Microsomal metabolic stability in Cynomolgus monkey liver microsomes assessed as half life; assay type: ADME, Macaca fascicularis, Microsome
Cytochrome P450 1A2 = target: T3, Cytochrome P450 1A2 (Homo sapiens, UniProt P05177); test: Inhibition of CYP1A2 (unknown origin); assay type: ADME
T3 sequence (P05177 whole entry): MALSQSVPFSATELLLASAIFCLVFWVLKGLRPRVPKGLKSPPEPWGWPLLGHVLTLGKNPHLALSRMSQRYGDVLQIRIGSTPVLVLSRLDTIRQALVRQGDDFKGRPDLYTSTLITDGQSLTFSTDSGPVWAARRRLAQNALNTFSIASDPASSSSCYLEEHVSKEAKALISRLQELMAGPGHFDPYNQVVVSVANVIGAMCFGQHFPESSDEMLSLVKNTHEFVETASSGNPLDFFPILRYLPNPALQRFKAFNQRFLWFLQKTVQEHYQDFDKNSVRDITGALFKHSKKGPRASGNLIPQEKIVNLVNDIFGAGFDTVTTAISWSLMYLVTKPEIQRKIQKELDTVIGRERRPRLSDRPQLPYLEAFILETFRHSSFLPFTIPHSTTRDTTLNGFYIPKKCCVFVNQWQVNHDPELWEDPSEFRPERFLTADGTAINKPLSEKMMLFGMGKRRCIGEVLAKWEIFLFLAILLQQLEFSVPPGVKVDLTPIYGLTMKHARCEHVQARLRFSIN

[15] = Oral bioavailability in beagle dog at 10 mg/kg measured upto 24 hrs upto 24 hrs by LC-MS/MS analysis; assay type: ADME, organism-based, Canis lupus familiaris; conditions: in vivo
[16] = Microsomal metabolic stability in rat liver microsomes assessed as half life; assay type: ADME, Microsome
[17] = Hepatic metabolic stability in mouse hepatocyte assessed as half life; assay type: ADME, cell-based; conditions: hepatocytes
Cytochrome P450 2C9 = Cytochrome P450 2C9 (Homo sapiens, UniProt P11712); test: Inhibition of CYP2C9 (unknown origin); assay type: ADME
[18] = Oral bioavailability in male ICR mouse at 10 mg/kg measured upto 24 hrs by LC-MS/MS analysis; assay type: ADME, organism-based; conditions: in vivo
[19] = target: T4, UDP-glucuronosyltransferase 1A1 (Homo sapiens, UniProt P22309); test: Inhibition of UGT1A1 (unknown origin)
T4 sequence (P22309 whole entry): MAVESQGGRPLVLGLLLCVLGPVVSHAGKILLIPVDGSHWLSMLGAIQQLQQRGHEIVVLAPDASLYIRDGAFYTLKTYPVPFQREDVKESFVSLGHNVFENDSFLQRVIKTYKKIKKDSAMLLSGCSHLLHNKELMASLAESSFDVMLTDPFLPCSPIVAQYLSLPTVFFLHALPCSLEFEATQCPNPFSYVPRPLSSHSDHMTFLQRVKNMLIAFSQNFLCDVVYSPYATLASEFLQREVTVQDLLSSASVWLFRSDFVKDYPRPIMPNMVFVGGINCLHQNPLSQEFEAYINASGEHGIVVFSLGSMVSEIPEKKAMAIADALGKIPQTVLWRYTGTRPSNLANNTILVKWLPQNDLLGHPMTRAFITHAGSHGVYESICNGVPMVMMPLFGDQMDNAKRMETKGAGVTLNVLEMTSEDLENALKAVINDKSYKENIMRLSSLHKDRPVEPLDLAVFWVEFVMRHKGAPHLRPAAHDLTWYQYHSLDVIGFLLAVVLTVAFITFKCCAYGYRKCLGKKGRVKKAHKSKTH

[20] = Hepatic metabolic stability in Cynomolgus monkey hepatocyte assessed as half life; assay type: ADME, cell-based, Macaca fascicularis; conditions: hepatocytes
[21] = AUCinf in beagle dog at 10 mg/kg, po measured upto 24 hrs upto 24 hrs by LC-MS/MS analysis; assay type: ADME, organism-based, Canis lupus familiaris; conditions: in vivo
HCT-116 [22] = test: Antiproliferative activity against MTAP-knock out human HCT-116 cells assessed as proliferation inhibition rate measured after 5 days by CTG assay; assay type: functional, cell-based; conditions: HCT-116, 120 h
[23] = Genotoxicity in Salmonella typhimurium TA102; assay type: toxicity; conditions: salmonella enterica subsp. enterica serovar typhimurium
[24] = Plasma protein binding in cynomolgus monkey assessed as unbound fraction; assay type: ADME, cell-free, Macaca fascicularis
Cytochrome P450 2C19 = Cytochrome P450 2C19 (Homo sapiens, UniProt P33261); test: Inhibition of CYP2C19 (unknown origin); assay type: ADME
[25] = Volume of distribution at steady state in male Sprague-Dawley rat at 2 mg/kg, iv measured upto 24 hrs upto 24 hrs by LC-MS/MS analysis; assay type: ADME, organism-based; conditions: in vivo

T1 sequence (P31153 whole entry, canonical isoform): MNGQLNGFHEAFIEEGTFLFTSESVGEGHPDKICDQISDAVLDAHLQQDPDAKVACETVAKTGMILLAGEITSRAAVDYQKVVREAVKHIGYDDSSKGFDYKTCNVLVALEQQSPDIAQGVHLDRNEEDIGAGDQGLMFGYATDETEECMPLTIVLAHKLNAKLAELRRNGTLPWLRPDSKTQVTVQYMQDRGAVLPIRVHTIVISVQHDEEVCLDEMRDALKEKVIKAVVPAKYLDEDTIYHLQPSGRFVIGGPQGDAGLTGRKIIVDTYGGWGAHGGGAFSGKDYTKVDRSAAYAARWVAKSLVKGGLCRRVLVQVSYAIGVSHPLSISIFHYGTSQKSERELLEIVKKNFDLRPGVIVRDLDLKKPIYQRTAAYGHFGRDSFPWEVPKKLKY
Cytochrome P450 2C19, sequence (P33261 whole entry): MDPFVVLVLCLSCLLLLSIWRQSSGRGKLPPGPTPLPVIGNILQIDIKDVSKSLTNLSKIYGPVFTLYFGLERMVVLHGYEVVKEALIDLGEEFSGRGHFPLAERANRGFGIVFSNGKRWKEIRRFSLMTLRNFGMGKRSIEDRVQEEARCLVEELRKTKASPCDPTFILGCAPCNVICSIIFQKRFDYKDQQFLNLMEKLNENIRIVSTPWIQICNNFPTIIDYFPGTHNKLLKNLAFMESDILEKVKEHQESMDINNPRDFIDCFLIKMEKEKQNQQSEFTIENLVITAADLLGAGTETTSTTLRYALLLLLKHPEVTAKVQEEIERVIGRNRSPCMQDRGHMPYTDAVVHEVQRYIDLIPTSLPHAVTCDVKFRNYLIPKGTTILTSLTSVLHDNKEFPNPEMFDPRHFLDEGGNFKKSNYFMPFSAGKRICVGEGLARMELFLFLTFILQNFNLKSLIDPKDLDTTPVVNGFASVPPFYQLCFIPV
Cytochrome P450 2C9, sequence (P11712 whole entry): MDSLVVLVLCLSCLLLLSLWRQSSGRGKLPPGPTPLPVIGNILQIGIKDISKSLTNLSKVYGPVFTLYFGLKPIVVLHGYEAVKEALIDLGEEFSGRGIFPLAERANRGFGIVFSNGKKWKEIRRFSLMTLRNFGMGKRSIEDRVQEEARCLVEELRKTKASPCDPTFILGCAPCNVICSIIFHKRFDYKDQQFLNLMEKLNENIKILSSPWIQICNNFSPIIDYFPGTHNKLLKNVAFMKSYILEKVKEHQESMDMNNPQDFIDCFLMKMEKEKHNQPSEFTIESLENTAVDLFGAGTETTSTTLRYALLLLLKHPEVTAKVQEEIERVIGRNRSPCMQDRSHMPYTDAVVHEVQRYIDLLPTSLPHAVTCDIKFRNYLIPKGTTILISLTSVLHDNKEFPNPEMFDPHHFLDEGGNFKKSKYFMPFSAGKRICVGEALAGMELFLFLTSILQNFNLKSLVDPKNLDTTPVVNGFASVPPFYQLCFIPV

| Structure (SMILES) | AUC(0-inf) [1] | IC50 [2] | clearance [3] | half-life [4] | Activity [5] | IC50 [6] | AUC(0-inf) [7] | fraction unbound [8] | Activity [9] | Imax (HCT-116 [10]) | half-life [11] | IC50 (Cytochrome P450 2B6) | half-life [12] | fraction unbound [13] | half-life [14] | IC50 (Cytochrome P450 1A2) | half-life [16] | half-life [17] | IC50 (Cytochrome P450 2C9) | bioavailability [18] | also measured |
| --- | --- | --- | --- | --- | --- | --- | --- | --- | --- | --- | --- | --- | --- | --- | --- | --- | --- | --- | --- | --- | --- |
| [2H]C([2H])([2H])NC1=NC(=O)[C@]2(CCc3ncccc32)c2cc(C(C)(F)F)ccc21 | 14500 ng·h/mL | 4 nM | 9.12 mL/min/kg | 394 min | Non-toxic | 2 nM | 3660 ng·h/mL | 0.373 | Non-toxic | 100% | 134 min | > 10 µM | > 217 min | 0.148 | > 186 min | > 10 µM | > 186 min | > 217 min | > 10 µM | 132% | F ([15]; po, 10 mg/kg, 24 h): 165%; IC50 [19]: > 50 µM; half-life [20]: > 217 min; AUC(0-inf) [21]: 12300 ng·h/mL; IC50 (HCT-116 [22]): 47 nM; Activity [23]: Non-toxic; fraction unbound [24]: 0.519; IC50 (Cytochrome P450 2C19): > 10 µM; Vdss [25]: 1.95 L/kg |
| [2H]C([2H])([2H])NC1=NC(=O)[C@]2(CCc3ncccc32)c2cc(C(F)(F)F)ccc21 | 24300 ng·h/mL | 4 nM | 7.98 mL/min/kg | 415 min | Non-toxic | 3 nM | 4190 ng·h/mL | 0.412 | Non-toxic | 89.34% | 130 min | > 10 µM | > 217 min | 0.113 | > 186 min | > 10 µM | > 186 min | > 217 min | > 10 µM | 97% | bioavailability ([15]; beagle): 130%; IC50 [19]: > 50 µM; half-life [20]: > 217 min; AUC(0-inf) [21]: 13600 ng·h/mL; IC50 (HCT-116 [22]): 58 nM; Activity [23]: Non-toxic; fraction unbound [24]: 0.562; IC50 (Cytochrome P450 2C19): > 10 µM; Vdss [25]: 1.84 L/kg |
